Assay [1] concerns the target T1, Human PDGFRα, cytoplasmic domain (GST-PDGFRα) (Homo sapiens, UniProt P16234).
T1 construct: made in house
In words: Human PDGFRα biochemical inhibition assay (off-chip Mobility Shift Assay).

Assay [2] addresses T2, Human PDGFRβ, cytoplasmic domain (GST-PDGFRβ) (Homo sapiens, UniProt P09619).
T2 construct: made in house
In words: Human PDGFRβ biochemical inhibition assay (off-chip Mobility Shift Assay). The essentials: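 GST-tagged cytoplasmic domain (aa 557-1106) from baculovirus was incubated 1 h at room temperature with compound, CSKtide, ATP at Km and Mg²⁺ in HEPES buffer, pH 7.5. Phosphorylated and unphosphorylated peptide were separated by off-chip mobility shift, and the product ratio P/(P+S) gave percent inhibition.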

Each structure is given as a SMILES string.

T2 sequence (P09619 with tags, fused parts or gaps): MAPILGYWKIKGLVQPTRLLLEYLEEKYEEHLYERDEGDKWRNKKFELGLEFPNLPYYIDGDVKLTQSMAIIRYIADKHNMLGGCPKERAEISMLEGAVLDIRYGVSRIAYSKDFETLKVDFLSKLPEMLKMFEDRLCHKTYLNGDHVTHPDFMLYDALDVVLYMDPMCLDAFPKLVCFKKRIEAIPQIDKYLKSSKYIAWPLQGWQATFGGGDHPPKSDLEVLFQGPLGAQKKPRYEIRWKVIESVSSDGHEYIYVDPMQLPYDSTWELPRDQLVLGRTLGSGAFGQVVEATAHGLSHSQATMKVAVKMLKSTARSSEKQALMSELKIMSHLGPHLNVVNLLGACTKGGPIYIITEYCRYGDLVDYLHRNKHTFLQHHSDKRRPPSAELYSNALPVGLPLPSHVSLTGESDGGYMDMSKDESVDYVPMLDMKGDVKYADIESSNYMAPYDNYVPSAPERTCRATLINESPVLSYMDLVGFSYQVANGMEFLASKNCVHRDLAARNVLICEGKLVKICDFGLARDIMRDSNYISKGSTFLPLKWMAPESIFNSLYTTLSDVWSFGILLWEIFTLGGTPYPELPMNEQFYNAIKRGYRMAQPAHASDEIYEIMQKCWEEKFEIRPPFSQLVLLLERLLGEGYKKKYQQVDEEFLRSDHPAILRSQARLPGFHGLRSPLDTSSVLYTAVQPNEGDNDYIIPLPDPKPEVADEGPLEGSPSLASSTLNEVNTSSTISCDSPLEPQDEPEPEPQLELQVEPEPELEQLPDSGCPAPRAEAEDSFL
T1 sequence (P16234 550-1089 T674I): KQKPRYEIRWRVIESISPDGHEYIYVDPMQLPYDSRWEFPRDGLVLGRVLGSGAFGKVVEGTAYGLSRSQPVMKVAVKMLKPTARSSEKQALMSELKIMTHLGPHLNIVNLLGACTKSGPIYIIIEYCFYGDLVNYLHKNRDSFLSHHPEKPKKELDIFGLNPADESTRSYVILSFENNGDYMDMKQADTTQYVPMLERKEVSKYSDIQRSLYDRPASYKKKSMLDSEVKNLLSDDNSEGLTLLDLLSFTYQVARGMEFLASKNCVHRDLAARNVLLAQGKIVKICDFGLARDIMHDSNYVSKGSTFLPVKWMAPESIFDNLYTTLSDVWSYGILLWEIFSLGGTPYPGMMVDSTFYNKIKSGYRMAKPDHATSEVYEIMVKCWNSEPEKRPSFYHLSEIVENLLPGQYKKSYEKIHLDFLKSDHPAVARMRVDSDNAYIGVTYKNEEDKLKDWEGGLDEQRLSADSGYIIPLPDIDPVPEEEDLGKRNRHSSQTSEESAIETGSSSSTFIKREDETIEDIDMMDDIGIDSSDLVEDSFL

For the compound `Cc1cc(C(=O)Nc2cccc([C@H](C)Nc3cnc4cnn(C)c4n3)c2)ccc1C(=O)OC(C)C` [Compound 258, isopropyl (S)-2-methyl-4-((3-(1-((1-methyl-1H-pyrazolo[3,4-b]pyrazin-6-yl)amino)ethyl)phenyl)carbamoyl)benzoate], the 50% inhibitory concentration (IC50) in assay [1] and in assay [2] was less than 300 nM throughout.

As to `Cc1c[nH]c2ncc(N[C@@H](C)c3cccc(NC(=O)c4cnn(C5CC5)c4)c3)nc12` [Compound 573, (s)-1-cyclopropyl-N-(3-(1-((7-methyl-5H-pyrrolo[2,3-b]pyrazin-2-yl)amino)ethyl)phenyl)-1H-pyrazole-4-carboxamide], the half-inhibitory concentration (IC50) in assay [1] and in assay [2] was less than 300 nM in each case.

With `Cc1cc(C(=O)Nc2cccc([C@H](C)Nc3cnc4cnn(C)c4n3)c2)ccc1CN1CCN(C)CC1` [Compound 208, (S)-3-methyl-N-(3-(1-((1-methyl-1H-pyrazolo[3,4-b]pyrazin-6-yl)amino)ethyl)phenyl)-4-((4-methylpiperazin-1-yl)methyl)benzamide], the IC50 in assay [1] and in assay [2] was less than 300 nM each time.

As for `CCn1cc2ncc(N[C@@H](C)c3cc(NC(=O)Cc4ccc(C)nc4)ccc3C)nc2n1` [Compound 664, (S)-N-(3-(1-((2-ethyl-2H-pyrazolo[3,4-b]pyrazin-6-yl)amino)ethyl)-4-methylphenyl)-2-(6-methylpyridin-3-yl) acetamide], the results for the IC50 in assay [1] and in assay [2] were less than 300 nM and no less than 1000 nM, respectively.

Turning to `CC(C)c1cc(C(=O)Nc2cccc([C@H](C)Nc3cnc4cnn(C)c4n3)c2)on1` [Compound 145, (S)-3-isopropyl-N-(3-(1-((1-methyl-1H-pyrazolo[3,4-b]pyrazin-6-yl)amino)ethyl)phenyl)isoxazole-5-carboxamide], the IC50 in assay [1] and in assay [2] was less than 300 nM each time.

As for `CCOC(=O)c1ccc(C(=O)Nc2cccc([C@H](C)Nc3cnc4cnn(C)c4n3)c2)cc1C` [Compound 255, ethyl (S)-2-methyl-4-((3-(1-((1-methyl-1H-pyrazolo[3,4-b]pyrazin-6-yl)amino)ethyl)phenyl)carbamoyl)benzoate], the concentration for half-maximal inhibition (IC50) in assay [1] and in assay [2] was less than 300 nM throughout.

Take `C[C@H](Nc1cnc2cnn(C)c2n1)c1cccc(NC(=O)c2ccc(Cl)s2)c1` [Compound 135, (S)-5-chloro-N-(3-(1-((1-methyl-1H-pyrazolo[3,4-b]pyrazin-6-yl)amino)ethyl)phenyl)thiophene-2-carboxamide]: the IC50 in assay [1] and in assay [2] was less than 300 nM each time.

In the case of `C[C@H](Nc1cnc2cnn(C)c2n1)c1cccc(NC(=O)N2CCCC(C(F)(F)F)C2)c1` (stereo partly drawn) [Compound 54, N-(3-((S)-1-((1-methyl-1H-pyrazolo[3,4-b]pyrazin-6-yl)amino)ethyl)phenyl)-3-(trifluoromethyl)piperidine-1-carboxamide], the IC50 in assay [1] and in assay [2] was less than 300 nM in each case.

As for `Cc1cc(C(=O)Nc2cccc([C@H](C)Nc3cnc4cnn(C)c4n3)c2)cnc1C#N` [Compound 127, (S)-6-cyano-5-methyl-N-(3-(1-((1-methyl-1H-pyrazolo[3,4-b]pyrazin-6-yl)amino)ethyl)phenyl)nicotinamide], the half-inhibitory concentration (IC50) in assay [1] and in assay [2] was less than 300 nM in each case.

For `C[C@H](Nc1cnc2[nH]cc(-c3cnn(C)c3)c2n1)c1cccc(NC(=O)c2cc(C(F)(F)F)nn2C)c1` [Compound 584, (S)-1-methyl-N-(3-(1-((7-(1-methyl-1H-pyrazol-4-yl)-5H-pyrrolo[2,3-b]pyrazin-2-yl)amino)ethyl)phenyl)-3-(trifluoromethyl)-1H-pyrazole-5-carboxamide], the IC50 in assay [1] and in assay [2] was 300 to 1000 nM throughout.

Regarding `CCn1cc2ncc(N[C@@H](C)c3cccc(NC(=O)c4cnn(C5CC5)c4)c3)nc2n1` [Compound 299, (S)-1-cyclopropyl-N-(3-(1-((2-ethyl-2H-pyrazolo[3,4-b]pyrazin-6-yl)amino)ethyl)phenyl)-1H-pyrazole-4-carboxamide], the IC50 – broadly, the midpoint of a concentration-inhibition curve – in assay [1] is less than 300 nM; in assay [2], 300 to 1000 nM.

Regarding `C[C@H](Nc1cnc2ccoc2n1)c1cc(NC(=O)c2ccc(C(F)(F)F)nc2)ccc1F` [Compound 617, (S)-N-(4-fluoro-3-(1-(furo[2,3-b]pyrazin-3-ylamino)ethyl)phenyl)-6-(trifluoromethyl) nicotinamide], the half-maximal inhibitory concentration (IC50) in assay [1] and in assay [2] was less than 300 nM each time.

Regarding `CCOc1ccc(C(=O)Nc2cccc([C@H](C)Nc3cnc4[nH]nc(C)c4n3)c2)cn1` [Compound 537, (S)-6-ethoxy-N-(3-(1-((3-methyl-1H-pyrazolo[3,4-b]pyrazin-5-yl)amino)ethyl)phenyl)nicotinamide], the IC50 in assay [1] and in assay [2] was less than 300 nM throughout.

On to `CCn1cc2ncc(N[C@@H](C)c3cccc(NC(=O)c4ccc(OC(F)(F)F)c(Cl)c4)c3)nc2n1` [Compound 437, (S)-3-chloro-N-(3-(1-((2-ethyl-2H-pyrazolo[3,4-b]pyrazin-6-yl)amino)ethyl)phenyl)-4-(trifluoromethoxy)benzamide], for which the concentration for half-maximal inhibition (IC50) in assay [1] and in assay [2] was less than 300 nM throughout.

As to `Cc1cncc(C(=O)Nc2ccc(F)c([C@H](C)Nc3cnc4cn(CC5CCNC5)nc4n3)c2)c1` (stereo partly drawn) [Compound 410, N-(4-fluoro-3-((1S)-1-((2-(pyrrolidin-3-ylmethyl)-2H-pyrazolo[3,4-b]pyrazin-6-yl)amino)ethyl)phenyl)-5-methylnicotinamide], the 50% inhibitory concentration (IC50) in assay [1] and in assay [2] was less than 300 nM in each case.

For `CCn1cc2ncc(N[C@@H](C)c3cc(NC(=O)c4cnc(N5CCN(C)CC5)c(C)c4)ccc3F)nc2n1` [Compound 432, (S)-N-(3-(1-((2-ethyl-2H-pyrazolo[3,4-b]pyrazin-6-yl)amino)ethyl)-4-fluorophenyl)-5-methyl-6-(4-methylpiperazin-1-yl)nicotinamide], the half-inhibitory concentration (IC50) in assay [1] and in assay [2] was less than 300 nM throughout.

As to `C[C@H](Nc1cnc2cnn(C)c2n1)c1cccc(NC(=O)c2cnn(C)c2)c1` [Compound 146, (S)-1-methyl-N-(3-(1-((1-methyl-1H-pyrazolo[3,4-b]pyrazin-6-yl)amino)ethyl)phenyl)-1H-pyrazole-4-carboxamide], the IC50 in assay [1] was 300 to 1000 nM; in assay [2], no less than 1000 nM.

On to `Cc1cc(C(=O)Nc2cccc([C@H](C)Nc3cnc4cnn(C)c4n3)c2)cnc1N1CCSCC1` [Compound 260, (S)-5-methyl-N-(3-(1-((1-methyl-1H-pyrazolo[3,4-b]pyrazin-6-yl)amino)ethyl)phenyl)-6-thiomorpholinonicotinamide], for which the IC50 in assay [1] and in assay [2] was less than 300 nM in each case.

Consider `CCn1cc2ncc(N[C@@H](C)c3cc(NC(=O)c4ccc(N5CCCC5)nc4)ccc3F)nc2n1` [Compound 320, (S)-N-(3-(1-((2-ethyl-2H-pyrazolo[3,4-b]pyrazin-6-yl)amino)ethyl)-4-fluorophenyl)-6-(pyrrolidin-1-yl)nicotinamide], for which the IC50 in assay [1] and in assay [2] was less than 300 nM throughout.

For `Cc1ncc(C(=O)Nc2cccc([C@H](C)Nc3cnc4cnn(C)c4n3)c2)cc1C(F)(F)F` [Compound 124, (S)-6-methyl-N-(3-(1-((1-methyl-1H-pyrazolo[3,4-b]pyrazin-6-yl)amino)ethyl)phenyl)-5-(trifluoromethyl) nicotinamide], the half-inhibitory concentration (IC50) in assay [1] and in assay [2] was less than 300 nM in each case.

As for `C[C@H](Nc1cnc2cnn(C)c2n1)c1cccc(NC(=O)c2cnc3ccsc3c2)c1` [Compound 49, (S)-N-(3-(1-((1-methyl-1H-pyrazolo[3,4-b]pyrazin-6-yl)amino)ethyl)phenyl) thieno[3,2-b]pyridinc-6-carboxamide], the IC50 in assay [1] and in assay [2] was less than 300 nM in each case.

Take `C[C@H](Nc1cnc2cnn(C)c2n1)c1cccc(NC(=O)c2ccc(NC3CC3)nc2)c1` [Compound 121, (S)-6-(cyclopropylamino)-N-(3-(1-((1-methyl-1H-pyrazolo[3,4-6]pyrazin-6-yl)amino)ethyl)phenyl)nicotinamide]: the IC50 in assay [1] and in assay [2] was less than 300 nM throughout.

As to `Cc1cncc(C(=O)Nc2cccc([C@H](C)Nc3cncc4c3cnn4-c3cnn(C)c3)c2)c1` [Compound 21], the concentration for half-maximal inhibition (IC50) in assay [1] and in assay [2] was less than 300 nM throughout.

For the compound `C[C@H](Nc1cnc2cnn(C)c2n1)c1cccc(NC(=O)c2ccc3c(c2)CCCO3)c1` [Compound 71, (S)-N-(3-(1-((1-methyl-1H-pyrazolo[3,4-b]pyrazin-6-yl)amino)ethyl)phenyl)chromane-6-carboxamide], the IC50 in assay [1] and in assay [2] was less than 300 nM in each case.

Turning to `CC[C@H](Nc1cnc2cn(CC)nc2n1)c1cccc(NC(=O)c2cncc(C)c2)c1` [Compound 408, (S)-N-(3-(1-((2-ethyl-2H-pyrazolo[3,4-b]pyrazin-6-yl)amino)propyl)phenyl)-5-methylnicotinamide], the IC50 in assay [1] was 300 to 1000 nM; in assay [2] it was no less than 1000 nM.

With `CC(C)n1cc(C(=O)Nc2cccc([C@H](C)Nc3cnc4cnn(C)c4n3)c2)cn1` [Compound 147, (S)-1-isopropyl-N-(3-(1-((1-methyl-1H-pyrazolo[3,4-b]pyrazin-6-yl)amino)ethyl)phenyl)-1H-pyrazole-4-carboxamide], the 50% inhibitory concentration (IC50) in assay [1] and in assay [2] was less than 300 nM in each case.

Turning to `C[C@H](Nc1cnc2cnn(C)c2n1)c1cc(NC(=O)c2ccc(OC(F)F)nc2)ccc1F` [Compound 202, (S)-6-(difluoromethoxy)-N-(4-fluoro-3-(1-((1-methyl-1H-pyrazolo[3,4-b]pyrazin-6-yl)amino)ethyl)phenyl) nicotinamide], the IC50 in assay [1] and in assay [2] was less than 300 nM throughout.

Consider `C[C@H](Nc1cnc2cnn(C)c2n1)c1cccc(NC(=O)C2CC2C(F)(F)F)c1` (stereo partly drawn) [Compound 52, N-(3-((S)-1-((1-methyl-1H-pyrazolo[3,4-b]pyrazin-6-yl)amino)ethyl)phenyl)-2-(trifluoromethyl)cyclopropane-1-carboxamide], for which the IC50 in assay [1] is 300 to 1000 nM; in assay [2], no less than 1000 nM.

Source of the values: patent US20230102554A1 (GB002, INC., priority 2019, published 2023).
